The source of these data is patent publication US20090298708A1, “2'-DEOXY-2'-FLUORO-BETA-D-ARABINONUCLEOSIDE 5'-TRIPHOSPHATES AND THEIR USE IN ENZYMATIC NUCLEIC ACID SYNTHESIS” (priority 2006, published 2009).

Some results are limits rather than exact numbers.

What all share (format): biochemical
One assay deals with T1, HIV-1 RT (recombinant) (Human immunodeficiency virus type 1 group M subtype B, UniProt P04585).
T1 construct: Reverse transcriptases (RT): • MMLV-RT (MMLV or MM; source: Fermentas); • HIV-1 RT (recombinant); purchased Worthington Biochemical Corp
The assay can be described thus: Primer extension assay with HIV-1 RT. Particulars: for Incorporation of three 2′F-araTTP / 2′F-araCTP (incorporation efficiency) / Order of efficiency of incorporation / Enzymatic activity during primer extension reactions: 37° C.; for Incorporation of three 2′F-araTTP / 2′F-araCTP (incorporation efficiency): DNA template PF22 (2′F-araTTP) or PF24 (2′F-araCTP); for Order of efficiency of incorporation: DNA template PF22 (T/U triphosphates) or PF24 (C triphosphates), three contiguous units; for Enzymatic activity during primer extension reactions: plus dATP, dGTP. Further details: key to Incorporation of three 2′F-araTTP / 2′F-araCTP (incorporation efficiency) / Enzymatic activity during primer extension reactions: ++++: excellent (no pausing observed); +++: very good (with slight pausing); ++: Good, full-length products with significant pausing; +: significant pausing, no full-length product but at least one 2′F-araN incorporation detected. An excerpt:
Primer extension assays were used to assess the incorporation of 2′F-araNTP on the various DNA templates (Table 1). The DNA primer (PF20) was first radioactively labeled at the 5′-hydroxyl terminus with a radioactive phosphorus probe and the enzyme T4 polynucleotide kinase (T4 PNK) (see Example 1 for General Methods). To assess the incorporation of 2′F-araNTPs, the primer and template were annealed, and the nucleoside 5′-triphosphates added in the presence of enzyme under the conditions specified in Table 2. Time points were obtained by analyzing small aliquots from the reaction mixture through polyacryamide gel electrophoresis (PAGE) and autoradiography.
Primer extension assays were used to assess the incorporation efficiency of contiguous 2′F-ara(T/C)TPs compared to 2′F-r(U/C)TP on a DNA template (e.g. PF22 or PF24). To this end, a DNA template (e.g. PF22: FIGS. 15, 16, 17A, 18, 21A; PF24: FIGS. 17B, 19, 20, 21B), primer and the appropriate NTPs (e.g. combination of dATP/dCTP/dGTP/ and NTP, where N=dT, 2′F-araT, 2′F-rU, or rU (FIGS. 15, 16, 17A, 18, 21A); or combination of dATP/dGTP/dTTP/ and NTP, where N=dC, 2′F-araC, 2′F-rC, or rC (FIGS. 17B, 19, 20, 21B)), were incubated in the presence one of MMLV-RT, 9N, HIV or DV polymerase. The protocols and conditions are described in Example 2 and Table 2.
Unless otherwise noticed in the Examples described below, the conditions used in the primer extension assays, such as dNTP concentration, reaction temperatures, concentration of Mg^2+, and reaction buffers (provided by the manufacturers, except for the HIV buffer which was prepared in-house) are shown in Table 2.
Primer extension assays were used to assess the incorporation of 2′F-araTTP on the DNA template (PF22). The DNA primer (PF20) was first radioactively labeled at the 5′-hydroxyl terminus with a radioactive phosphorus probe and the enzyme T4 polynucleotide kinase (T4 PNK) according to the manufacturer's specifications (MBI Fermentas Life Sciences, Burlington, ON). Incorporation of the ^32P label was accomplished in reaction mixtures consisting of DNA substrate (200 pmol), 2 μl loxreaction buffer (Buffer A for forward reaction: 500 mM Tris-HCl, pH 7.6 at 25° C., 100 mM MgCl2, 50 mM DTT, 1 mM spermidine and 1 mM EDTA), 1 μl T4 PNK enzyme solution (10 U/1 μl in a solution of 20 mM Tris-HCl, pH 7.5, 25 mM KCl, 0.1 mM EDTA, 2 mM DTT and 50% glycerol), 6 μl [γ-^32P]-ATP solution (6000 Ci/mmol, 10 mCi/ml; Amersham Biosciences, Inc.) and autoclaved sterile water to a final volume of 20 μl. The reaction mixture was incubated for about 45-60 min at 37° C., followed by a second incubation for 10 min at 95° C. to heat denature and deactivate the kinase enzyme. The solution was purified according to a standard protocol and the isolated yield of 5′-^32P-DNA following gel extraction averages 50%. The pure labeled samples were kept at −20° C. for future use.
Usually 2 or 3 folds of cold (unlabeled) DNA primer were combined with the radioactive primer. Then primer to template was mixed together with the final concentration at 85 nM for the primer and 255 nM for the template (i.e. the primer:template=1:3 molar ratio). The primer and template were heated at 95° C. for 5 min and annealed at 4° C. for at least two hours before use. In an Eppendorf tube, the following reagents, 5× or 10× buffer, nucleoside 5′-triphosphates (DATP, dGTP, dCTP, 2′F-araTTP at the same concentrations; see legend of FIG. 2), water, the primer and template mixture, were added together according to pre-calculated reaction volume (20 μL) and concentrations (see reaction conditions in Table 2). Mineral oil (20 μL) was usually used to prevent evaporation. The reaction mixture was incubated at either 37° C. or 55° C. and one of the various enzymes tested was added to initiate the primer extension reactions. […]

The test system of assay [1] is Phusion DNA polymerase (Ph). The assay can be described thus: Dropout assay, fidelity of incorporation by Ph. Conditions: 30 min reaction time, 55° C., templates PF21, PF41. An excerpt:
FIG. 13 illustrates the fidelity of 2′F-araNTP incorporation on pyrimidine rich DNA template PF21 by Ph DNA polymerase. […] Template PF41 and primer PF20 are shown; PF39 is a 27-nt DNA control.
FIG. 14 illustrates the fidelity of 2′F-araNTP incorporation on purine rich DNA template PF41 by Ph DNA polymerase. The base sequence of the primer, DNA template and resulting terminated products in different dropout conditions (condition 1-5) is shown. […] Lane 1: dNTPs; 2: drop out dCTP (i.e. dATP, dGTP and dTTP, shorten as AGT, same coding for lanes 3-5), lane 6: 2′F-araNTPs; 7: drop out 2′F-araCTP (i.e. 2′F-araATP, 2′F-araGTP, 2′F-araTTP, shorten as AGT; same coding for lanes 8-10). The template PF41 and the primer PF20 are shown; PF39 is a 27mer DNA control.
For example, the 2′F-araNTP of interest is removed from the pool, and the ensuing synthesis on DNA template (e.g. PF21, PF23, PF41, PF43) assessed in comparison with a control reaction containing all four 2′F-araNTPs. For comparison, dropout experiments containing dNTPs are run in parallel. […] Apparent fidelity was calculated according to the equation:
1−[(% full-length−2′F-araNTP)/(% full-length+2′F-araNTP)]
In one of these assays, 2′F-araATP was removed from the pool, and the ensuing synthesis assessed in comparison with a control reaction containing all four 2′F-araNTPs. For comparison, dropout experiments containing dNTPs were run in parallel (FIGS. 11-14).
Phusion DNA polymerase (Ph) was evaluated for fidelity of 2′F-araNTP incorporation using the same dropout assay. All four dropout experiments were conducted with the same DNA template PF21 (FIG. 13), or PF41 (FIG. 14).

In a further assay the test system is DNA polymerases. The assay can be described thus: Primer extension assays, statement for all enzymes studied. Conditions: DNA template PF24; 9N, HIV, MMLV, DV.

Description for DNA polymerases: Primer extension assays were used to assess the incorporation of 2′F-araNTP on the various DNA templates (Table 1). […] To assess the incorporation of 2′F-araNTPs, the primer and template were annealed, and the nucleoside 5′-triphosphates added in the presence of enzyme under the conditions specified in Table 2. Time points were obtained by analyzing small aliquots from the reaction mixture through polyacryamide gel electrophoresis (PAGE) and autoradiography.
Mineral oil (20 μL) was used to prevent evaporation. The reaction mixture was incubated at either 37° C. (for KF) or 55° C. (for other polymerases) and different enzyme was added to initiate the primer extension reaction. Time points were obtained by small aliquots (4 μL or 8 μL) from the reaction mixture and quenching the aliquot with the same volume of a stopping dye solution (98% deionized formamide, 10 mM EDTA, 1 mg/ml bromophenol blue and 1 mg/ml xylene cyanol). The product pattern from each time point was analyzed by 12% denaturing polyacryamide gel electrophoresis (PAGE) and subsequent autoradiography.
The primer extension assays were used to assess the incorporation efficiency of three contiguous 2′F-ara(T/C)TP versus 2′F-r(U/C)TP on a DNA template (PF22 or PF24). To this end, template PF22 (FIGS. 15, 16, 17A, 18 and 21A) or template PF24 (FIGS. 17B, 19, 20 and 21B); primer PF20; and the appropriate NTPs: dATP/dGTP/dCTP/ and NTP, where N=dT, 2′F-araT, 2′F-rU, or rU; or dATP/dGTP/dTTP/ and NTP, where N=dC, 2′F-araC, 2′F-rC, or rC; were incubated in the presence HIV (FIGS. 18 and 20), DV (FIG. 21), MMLV-RT (FIGS. 15, 16, and 19) or 9N (FIG. 17) following the protocols and conditions described in Example 2 and Table 2.

For `Nc1ccn([C@@H]2O[C@H](COP(=O)(O)OP(=O)(O)OP(=O)(O)O)[C@@H](O)[C@@H]2F)c(=O)n1` [2′F-araCTP, 1-(2-deoxy-2-fluoro-β-D-arabinofuranosyl)cytosine 5′-triphosphate], at HIV-1 RT (recombinant), the “Incorporation of three 2′F-araTTP / 2′F-araCTP (incorporation efficiency)” value is “++++” and the “Order of efficiency of incorporation” value is given as “dCTP~2′F-rCTP ≧ 2′F-araCTP > CTP”. Further, the “Enzymatic activity during primer extension reactions” value at HIV-1 RT (recombinant) (Example 3, DNA template PF24, 3x 2′F-araCTP, dTTP) is on record as “++++”. The “% Apparent Fidelity, 2′F-araNTP” value in assay [1] is reported as “C: >99%”. Moreover, the “order of incorporation efficiency” value in the assay on DNA polymerases is given as “dCTP=2′F-rCTP>2′F-araCTP >>rCTP”.

In the case of `Cc1cn([C@@H]2O[C@H](COP(=O)(O)OP(=O)(O)OP(=O)(O)O)[C@@H](O)[C@@H]2F)c(=O)[nH]c1=O` [2′F-araTTP, 1-(2-deoxy-2-fluoro-β-D-arabino-furanosyl)thymine 5′-triphosphate], at HIV-1 RT (recombinant), the “Incorporation of three 2′F-araTTP / 2′F-araCTP (incorporation efficiency)” value is given as “++++” and the “Order of efficiency of incorporation” value was “dTTP > 2′F-araTTP > 2′F-rUTP > UTP”. For the same molecule, on HIV-1 RT (recombinant) (DNA template PF22, compared to 2′F-rUTP and rUTP), the “substrate property for HIV RT” value is on record as “excellent substrate”. The “Enzymatic activity during primer extension reactions” value at HIV-1 RT (recombinant) (Example 2, DNA template PF22, 3x 2′F-araTTP, dCTP) is on record as “++++”. In assay [1], the “% Apparent Fidelity, 2′F-araNTP” value is given as “T: >99%”.

With `Nc1ccn([C@@H]2O[C@H](COP(=O)(O)OP(=O)(O)OP(=O)(O)O)[C@@H](O)[C@H]2F)c(=O)n1` [2′F-rCTP, 1-(2-deoxy-2-fluoro-β-D-ribofuranosyl) cytosine 5′-triphosphate, reference compound], the “Order of efficiency of incorporation” value at HIV-1 RT (recombinant) is recorded as “dCTP~2′F-rCTP ≧ 2′F-araCTP > CTP”. For the same molecule, in the assay on DNA polymerases, the “order of incorporation efficiency” value is “dCTP=2′F-rCTP>2′F-araCTP >>rCTP”.

As to `O=c1ccn([C@@H]2O[C@H](COP(=O)(O)OP(=O)(O)OP(=O)(O)O)[C@@H](O)[C@H]2F)c(=O)[nH]1` [2′F-rUTP, 1-(2-deoxy-2-fluoro-β-D-ribo-furanosyl)uracil 5′-triphosphate, reference compound], the “Order of efficiency of incorporation” value at HIV-1 RT (recombinant) was “dTTP > 2′F-araTTP > 2′F-rUTP > UTP”.

Take `Nc1ccn([C@H]2C[C@H](O)[C@@H](COP(=O)(O)OP(=O)(O)OP(=O)(O)O)O2)c(=O)n1` [dCTP]: on HIV-1 RT (recombinant), the “Order of efficiency of incorporation” value is given as “dCTP~2′F-rCTP ≧ 2′F-araCTP > CTP”. Moreover, the “% Apparent Fidelity, dNTP” value in assay [1] is recorded as >99%. Besides, the “order of incorporation efficiency” value in the assay with DNA polymerases is “dCTP=2′F-rCTP>2′F-araCTP >>rCTP”.

In the case of `Cc1cn([C@H]2C[C@H](O)[C@@H](COP(=O)(O)OP(=O)(O)OP(=O)(O)O)O2)c(=O)[nH]c1=O` [dTTP, reference compound], the “Order of efficiency of incorporation” value on HIV-1 RT (recombinant) was “dTTP > 2′F-araTTP > 2′F-rUTP > UTP”. Moreover, in assay [1], the “% Apparent Fidelity, dNTP” value is >99%.
